# Experimental data reported in patent US20050014268A1, “Genetic transformation using a PARP inhibitor” (Bayer BioScience NV, priority 1995, published 2005).
# Tested on: Wheat embryogenic callus
# Experiment: Tissue culture of wheat embryogenic callus on W2 medium containing niacinamide
# Assay type: cell-based
# Protocol: After the one day incubation the capacity of the transformed and control tissues to reduce 2,3,5-triphenyltetrazolium chloride (TTC) is measured e.g. by the following procedure which is modified from Towill and Mazur (supra): • incubate the tissues for 1 to 4 hours in K-phosphate buffer (pH 7.4) containing 10 mM TTC and 0.1% Tween20. […] The O.D. of the control extract is subtracted from the OD of the TTC-reacted extracts. In the above conditions 0.1 mM reduced TTC corresponds to an OD485 of 0.214 or OD545 of 1.025 (light path 1 cm). • the reducing capacity of the transformed plant line is compared to that of the control line. Wheat embryogenic callus was cultured on W2 medium (see Example 2).
compound,measurement,setting,value
NC(=O)c1cccnc1 [niacinamide],growth of the tissue (rate relative to the normal rate),"250 mg/l (approx. 2 mM) niacinamide in W2 medium, growth slowed after 4 days, rate after 4 weeks",approximately 30%
same,viability of the tissue,"250 mg/l niacinamide in W2 medium, at least one month",remained viable for extended periods of time
same,TTC-reducing capacity of the tissue,after 4-5 days of incubation with niacinamide,substantially decreased
same,growth after removal of niacinamide from the medium,niacinamide subsequently removed from the medium,started to grow normally again
